7 compounds from PubChem BioAssay (NCI) can be followed below.

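Five compound concentrations were applied to cells in 96-well plates for 48 hours; endpoints were derived by simple linear interpolation of the resulting dose-response curve. TGI marks complete inhibition of growth.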 Some results are limits rather than exact numbers.

Test systems include DLD-1 colon; HOP-18 NSCLC; SN12K1 renal; KM20L2 colon; DMS 114 small cell lung; P388/ADR leukemia; P388 leukemia; LXFL 529 NSCLC; RXF-631 renal.
What all share (test): NCI tumour cell line growth inhibition, 48 h

For the compound `CC(=O)C(=Cc1cn(C)c(=O)n(C)c1=O)C(C)=O`, the TGI in the assay with DLD-1 colon turned out to be 222 µM; in the assay with HOP-18 NSCLC, 456 µM; in the assay with SN12K1 renal, 228 µM; in the assay on KM20L2 colon, 230 µM; with DMS 114 small cell lung, 227 µM; with P388/ADR leukemia, 392 µM. In the assay on P388 leukemia, the TGI stood at 240 µM.

Take `C[s+]1c2ccccc2c2ccccc21`: the TGI with KM20L2 colon and in the assay with LXFL 529 NSCLC was over 100 µM each time.

Consider `CC(C)CCCC(C)[C@H]1CCC(C2C[C@@H](O)[C@@H]3CC(O)[C@@H](O)C[C@]3(CO)C2=O)[C@]1(C)CCO` (stereo not given in full), for which the TGI in the assay on DLD-1 colon was over 100 µM; in the assay on HOP-18 NSCLC it was 47.7 µM; in the assay on SN12K1 renal it was 37.4 µM; in the assay on KM20L2 colon it was 38.5 µM; in the assay on DMS 114 small cell lung it was 39.7 µM; with P388/ADR leukemia, over 88.7 µM. Also, in the assay with P388 leukemia, the TGI was 49.5 µM.

On to `NC(=O)CCC(N=c1c2ccccc2n(O)c2ccccc12)C(=O)O` (stereo not given), for which the TGI in the assay on DLD-1 colon was over 100 µM; in the assay with HOP-18 NSCLC, 98.4 µM; in the assay on KM20L2 colon, over 100 µM; in the assay with DMS 114 small cell lung, over 100 µM; in the assay on LXFL 529 NSCLC, over 100 µM.

For `CC1=C(CO)C(=O)OC(C(C)C2CCC3C4CC5OC56C(O)C(N5CC5)=CC(=O)C6(C)C4CCC23C)C1` (stereo not given), the TGI with DLD-1 colon came to 17.6 µM; in the assay with RXF-631 renal, 34.5 µM; in the assay with KM20L2 colon it was 9.87 µM; with DMS 114 small cell lung, 5.85 µM; in the assay with LXFL 529 NSCLC, 15.9 µM.

As to `CCOc1ccc2nc(NC(=O)C(=O)C(C(=O)c3ccccc3F)C3OC(=O)c4ccccc43)sc2c1` (stereo not given), the TGI with DLD-1 colon is over 100 µM; in the assay with RXF-631 renal, 70.1 µM; in the assay with KM20L2 colon, 71 µM; in the assay on LXFL 529 NSCLC it was 77.8 µM.

For `Clc1ccc2c(NCCCCCCNc3ccnc4cc(Cl)ccc34)ccnc2c1`, the TGI in the assay on DLD-1 colon is 10.3 µM; in the assay with RXF-631 renal, 6.02 µM; in the assay on KM20L2 colon, 4.39 µM; in the assay with DMS 114 small cell lung, 3.34 µM; with LXFL 529 NSCLC it was 7.3 µM.
